Results as given in patent US6924400B2, “Triaromatic vitamin D analogues” (Galderma Research & Development, SNC, priority 2001, dated 2005).

Experiments:
HL60 cells = assay: Activity on the differentiation of HL60 cells (NBT reduction); assay type: cell-based; settings: for AC50: Homo sapiens, HL-60, 96 h, HL60 cells, culturing for 4 days, NBT-positive cells counted; for differentiation-inducing activity on HL60 cells compared with calcitriol: comparison in words
Source text: The biological properties analogous to vitamin D may also be measured by means of the capacity of the product to induce the differentiation of promyelocytic leukemia cells HL60. The protocol and also the results obtained with the compounds according to the invention are described in Example 8 of the present patent application.
Calcitrol induces the differentiation of promyelocytic leukaemia cells (HL60) into monocytes/macrophages. This differentiation-inductive effect is a well-characterized marker of cellular vitamin D. One of the most important antimicrobial products of macrophages is hydrogen peroxide, which may be analysed experimentally by the reduction of NBT (Nitroblue Tetrazolium).
The method used is as follows: the HL60 cells are inoculated into 6-well plates and then treated immediately with a test compound. After culturing for 4 days, the cells are incubated with phorbol TPA ester and NBT for a short period and the differentiated cells, i.e., the ones that are positive to NBT, are counted.

human VDR receptor = target: T1, human VDR receptor (Homo sapiens, UniProt P11473); assay: VDR agonist activity, HeLa cotransfection with reporter plasmid p240Hase-CAT; assay type: cell-based; settings: for AC50: HeLa cells, treatment for 18 hours, CAT activity by ELISA; for VDR agonist activity compared with calcitriol: comparison in words
T1 construct: expressed in transfected cells; host or cells: HeLa
T1 sequence (P11473 1-427): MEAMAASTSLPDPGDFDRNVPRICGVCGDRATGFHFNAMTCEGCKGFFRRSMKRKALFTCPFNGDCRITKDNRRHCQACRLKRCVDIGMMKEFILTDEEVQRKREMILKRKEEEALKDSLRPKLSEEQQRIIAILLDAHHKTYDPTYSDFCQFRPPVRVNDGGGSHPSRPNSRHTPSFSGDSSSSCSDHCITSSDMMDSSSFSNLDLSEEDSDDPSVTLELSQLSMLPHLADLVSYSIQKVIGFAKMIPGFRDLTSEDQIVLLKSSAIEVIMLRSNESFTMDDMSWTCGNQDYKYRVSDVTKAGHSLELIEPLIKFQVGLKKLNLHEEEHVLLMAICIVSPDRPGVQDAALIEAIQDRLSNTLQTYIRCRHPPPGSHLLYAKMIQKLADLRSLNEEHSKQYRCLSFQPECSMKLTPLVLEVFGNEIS
Protocol: By way of example, the VDR agonist activity may be tested on the HeLa cell line by cotransfection of an expression vector of the human VDR receptor and of the reporter plasmid p240Hase-CAT. The agonist activity may also be characterized in this cotransfection system, by determining the dose required to achieve 50% of the maximum activity of the product (AC50).
18 hours after cotransfection, the test compound is added to the medium. After treatment for 18 hours, the CAT activity of the cell lysates is assayed by means of an ELISA test (Enzyme Linked ImmunoSorbent Assay, sold by Roche Molecular Biochemicals).

[1] = test system: normal human keratinocytes; assay: Activity on the proliferation of human keratinocytes (BrdU incorporation); settings: for IC50: Homo sapiens, Keratinocyte, 120 h, read-out: IC50-proliferation of KHNs
Protocol: The biological properties analogous to vitamin D may also be measured by means of the capacity of the product to inhibit the proliferation of normal human keratinocytes (NHK in culture). The product is added to NHKs cultured under conditions promoting the proliferative state. The product is left in contact with the cells for five days. The number of proliferative cells is measured by incorporation of bromodeoxyuridine (BRdU) into the DNA.
The method used is as follows: normal human keratinocytes are inoculated at low density into a 24-well plate. After 4 hours, the test compounds are added to the culture medium. After culturing for 5 days, the proliferation of the keratinocytes is determined by incorporating 5-bromo-2′-deoxyuridine (BrdU) into the DNA. The amount of BrdU incorporated is then measured using the ELISA test (Enzyme Linked ImmunoSorbent Assay, sold by Roche Molecular Biochemicals).

| SMILES | AC50 (human VDR receptor) | AC50 (HL60 cells) | IC50 [1] | VDR agonist activity compared with calcitriol (human VDR receptor) | differentiation-inducing activity on HL60 cells compared with calcitriol (HL60 cells) | activity on keratinocyte proliferation relative to calcitriol ([1]; fold greater than calcitriol) | inhibitory activity on keratinocyte proliferation compared with calcitriol ([1]; comparison in words) |
| --- | --- | --- | --- | --- | --- | --- | --- |
| C=C1/C(=C\C=C2/CCC[C@]3(C)[C@@H]([C@H](C)CCCC(C)(C)O)CC[C@@H]23)C[C@@H](O)C[C@@H]1O [Calcitriol, 1,25-dihydroxyvitamin D3, reference compound] | – | 10.7 nM | – | – | – | – | – |
| CCc1cc(C(O)(CC)CC)ccc1-c1cc(OCc2ccc(CO)c(CO)c2)ccc1CC [Example 2, {5-[6,2′-Diethyl-4′-(1-ethyl-1-hydroxypropyl)biphenyl-3-yloxymethyl]-2-hydroxymethylphenyl}methanol] | 4.1 nM | 15 nM | 53 nM | – | – | – | – |
| CCc1ccc(OCc2ccc(CO)c(CO)c2)cc1-c1ccc(C(O)(CC)CC)cc1C(C)C [Example 4, {4-[6-Ethyl-4′-(1-ethyl-1-hydroxypropyl)-2′-isopropylbiphenyl-3-yloxymethyl]-2-hydroxymethylphenyl}methanol] | 3.2 nM | 27 nM | 26 nM | – | – | – | – |

More lines, main results first:

| AC50 (human VDR receptor) | SMILES | AC50 (HL60 cells) | IC50 [1] | VDR agonist activity compared with calcitriol (human VDR receptor) | differentiation-inducing activity on HL60 cells compared with calcitriol (HL60 cells) | activity on keratinocyte proliferation relative to calcitriol ([1]; fold greater than calcitriol) | inhibitory activity on keratinocyte proliferation compared with calcitriol ([1]; comparison in words) |
| --- | --- | --- | --- | --- | --- | --- | --- |
| 2.4 nM | CCCc1cc(C(O)(CC)CC)ccc1-c1cc(OCc2ccc(CO)c(CO)c2)ccc1C [Example 1, {5-[4′-(1-Ethyl-1-hydroxypropyl)-6-methyl-2′-propylbiphenyl-3-yloxy-methyl]-2-hydroxymethylphenyl}methanol] | 7.6 nM | 16 nM | – | – | – | – |
| 2.2 nM | CCCc1cc(C(O)(CC)CC)ccc1-c1cc(OCc2ccc(CO)c(CO)c2)ccc1CC [Example 3, {4-[6-Ethyl-4′-(1-ethyl-1-hydroxypropyl)-2′-propylbiphenyl-3-yloxymethyl]-2-hydroxymethylphenyl}methanol] | 11 nM | 15 nM | – | – | – | – |
| 0.6 nM | CCCc1cc(C(O)(CC)CC)ccc1-c1cc(CCc2ccc(CO)c(CO)c2)ccc1C [Example 5, (4-{2-[4′-(1-Ethyl-1-hydroxypropyl)-6-methyl-2′-propylbiphenyl-3-yl]ethyl}-2-hydroxymethylphenyl)methanol] | 1.8 nM | 2.4 nM | superior activity | markedly superior activity | more than 5 times | – |
| 50 nM | CCC(O)(CC)c1ccc(-c2cc(NCc3ccc(CO)c(CO)c3)ccc2C)c(C)c1 [Example 6, (4-{[4′-(1-Ethyl-1-hydroxypropyl)-6,2′-dimethylbiphenyl-3-ylamino]-methyl}-2-hydroxymethylphenyl)methanol] | 147 nM | 122 nM | less good activity compared with calcitriol | less good activity compared with calcitriol | – | less good activity compared with calcitriol |
